Data published in ChEMBL document CHEMBL1201862, “PubChem BioAssay data set” (2004).
Calls of active or inactive are those of the source.

Experiments:
[1] = target: T1, Fatty acid synthase (Homo sapiens, UniProt P49327); experiment: inhibition of human FAS-TE enzyme activity – biochemical, endpoint fluorescence intensity, uHTS hits, dose response (AID 624327); assay type: functional;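 note: fluorescence from hydrolysis of an O-methyl fluorescein acyl ester substrate by the enzyme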
[2] = target: T1, Fatty acid synthase; experiment: inhibition of human FAS-TE enzyme activity – biochemical, kinetic fluorescence intensity, dose response (AID 624326); assay type: functional;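 note: rate of fluorescence rise from hydrolysis of a fluorogenic O-methyl fluorescein ester substrate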
[3] = target: T2, Calpain-2 catalytic subunit (Sus scrofa, UniProt P43367); experiment: m-calpain protease blockers, concentration series – biochemical, fluorogenic peptide substrate, dose response (AID 1420); assay type: functional
T2 sequence (P43367 whole entry): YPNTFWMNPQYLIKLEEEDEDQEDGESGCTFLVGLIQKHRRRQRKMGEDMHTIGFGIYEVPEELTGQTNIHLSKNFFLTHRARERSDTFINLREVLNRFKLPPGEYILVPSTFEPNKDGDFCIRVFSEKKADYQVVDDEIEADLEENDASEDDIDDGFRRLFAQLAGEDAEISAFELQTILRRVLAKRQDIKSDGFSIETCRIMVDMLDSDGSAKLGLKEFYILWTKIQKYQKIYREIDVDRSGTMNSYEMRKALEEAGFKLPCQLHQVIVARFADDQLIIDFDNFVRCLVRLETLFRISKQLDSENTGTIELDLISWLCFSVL

[4] = target: Induced myeloid leukemia cell differentiation protein Mcl-1 (Homo sapiens, UniProt Q07820); assay type: functional
Induced myeloid leukemia cell differentiation protein Mcl-1, sequence (Q07820 whole entry): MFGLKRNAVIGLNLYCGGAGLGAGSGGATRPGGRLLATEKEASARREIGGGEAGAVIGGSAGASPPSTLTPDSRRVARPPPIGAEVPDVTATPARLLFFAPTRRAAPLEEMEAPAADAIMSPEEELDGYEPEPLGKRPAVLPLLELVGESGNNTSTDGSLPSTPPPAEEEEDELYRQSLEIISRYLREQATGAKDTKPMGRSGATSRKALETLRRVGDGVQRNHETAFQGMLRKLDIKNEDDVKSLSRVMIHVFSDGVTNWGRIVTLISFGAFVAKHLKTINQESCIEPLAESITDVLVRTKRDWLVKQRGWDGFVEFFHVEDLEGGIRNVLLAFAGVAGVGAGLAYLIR

[5] = tested on: BJ; experiment: BJ-TERT fibroblast viability loss – cell-based, RAS-independent, luminescence, dose response (AID 1933); assay type: functional; conditions: Homo sapiens
[6] = tested on: P388/ADR; experiment: cells; assay type: functional; conditions: Mus musculus
[7] = tested on: INS1; experiment: INS-1E survival protection against cytokine death – cell-based, luminescence, retest, dose response (AID 449756); assay type: functional; conditions: Rattus norvegicus;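 note: cell death triggered by IL-1 beta plus TNF-alpha plus IFN-gamma mixture; protective hits raise ATP signal compared with cytokine alone wells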
[8] = tested on: P388; experiment: cells; assay type: functional; conditions: Mus musculus
[9] = DRD fibroblast viability loss – cell-based, non-viral oncogenic, luminescence, dose response (AID 1934); assay type: functional; conditions: Homo sapiens
[10] = tested on: SN12K1; experiment: cells; assay type: functional; conditions: Homo sapiens
[11] = tested on: BJ; experiment: cells; assay type: functional, cell-based; conditions: Homo sapiens
[12] = tested on: BJ; experiment: BJ-TERT-LT-ST fibroblast viability loss – cell-based, RAS-independent, luminescence, dose response (AID 1935); assay type: functional; conditions: Homo sapiens;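 note: BJ fibroblasts immortalized with TERT plus LT and ST oncogenes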
[13] = target: Cytochrome P450 2C19 (Homo sapiens, UniProt P33261); experiment: Cytochrome panel assay with activity outcomes. Panel member name: p450-cyp2c19 Compounds with AC50 equal or less than 10 uM are considered active; assay type: functional; conditions: read-out: AC50
Cytochrome P450 2C19, sequence (P33261 whole entry): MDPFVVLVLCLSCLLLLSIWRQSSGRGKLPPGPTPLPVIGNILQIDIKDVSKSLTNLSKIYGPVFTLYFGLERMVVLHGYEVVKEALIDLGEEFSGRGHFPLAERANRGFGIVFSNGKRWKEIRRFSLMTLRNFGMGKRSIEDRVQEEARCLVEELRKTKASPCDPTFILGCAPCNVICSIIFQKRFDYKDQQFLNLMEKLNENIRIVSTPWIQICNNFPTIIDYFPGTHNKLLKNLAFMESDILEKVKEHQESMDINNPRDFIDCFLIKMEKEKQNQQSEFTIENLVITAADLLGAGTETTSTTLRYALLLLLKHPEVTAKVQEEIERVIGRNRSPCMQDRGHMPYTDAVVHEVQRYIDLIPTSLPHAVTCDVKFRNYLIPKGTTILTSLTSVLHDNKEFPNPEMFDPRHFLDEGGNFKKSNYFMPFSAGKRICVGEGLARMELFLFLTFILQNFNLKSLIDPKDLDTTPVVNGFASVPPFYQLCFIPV

[14] = target: T3, Cytochrome P450 1A2 (Homo sapiens, UniProt P05177);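 note: PubChem cytochrome P450 panel assay, CYP1A2 panel member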
T3 sequence (P05177 whole entry): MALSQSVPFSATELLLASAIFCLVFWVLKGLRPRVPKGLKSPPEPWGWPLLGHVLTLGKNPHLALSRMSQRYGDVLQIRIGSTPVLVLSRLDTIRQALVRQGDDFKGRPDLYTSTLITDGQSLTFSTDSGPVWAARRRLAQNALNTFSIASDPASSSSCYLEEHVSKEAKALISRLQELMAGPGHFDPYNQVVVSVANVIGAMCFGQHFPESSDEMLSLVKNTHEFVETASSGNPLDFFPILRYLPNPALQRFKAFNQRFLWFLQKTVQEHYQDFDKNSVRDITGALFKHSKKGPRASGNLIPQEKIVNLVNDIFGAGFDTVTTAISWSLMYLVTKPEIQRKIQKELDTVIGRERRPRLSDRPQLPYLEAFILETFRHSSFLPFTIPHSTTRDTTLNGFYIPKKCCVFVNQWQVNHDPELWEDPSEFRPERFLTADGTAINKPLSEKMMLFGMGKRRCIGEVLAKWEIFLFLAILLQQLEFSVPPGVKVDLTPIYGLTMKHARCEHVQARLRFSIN

[15] = target: T4, Cytochrome P450 2C9 (Homo sapiens, UniProt P11712)
T4 sequence (P11712 whole entry): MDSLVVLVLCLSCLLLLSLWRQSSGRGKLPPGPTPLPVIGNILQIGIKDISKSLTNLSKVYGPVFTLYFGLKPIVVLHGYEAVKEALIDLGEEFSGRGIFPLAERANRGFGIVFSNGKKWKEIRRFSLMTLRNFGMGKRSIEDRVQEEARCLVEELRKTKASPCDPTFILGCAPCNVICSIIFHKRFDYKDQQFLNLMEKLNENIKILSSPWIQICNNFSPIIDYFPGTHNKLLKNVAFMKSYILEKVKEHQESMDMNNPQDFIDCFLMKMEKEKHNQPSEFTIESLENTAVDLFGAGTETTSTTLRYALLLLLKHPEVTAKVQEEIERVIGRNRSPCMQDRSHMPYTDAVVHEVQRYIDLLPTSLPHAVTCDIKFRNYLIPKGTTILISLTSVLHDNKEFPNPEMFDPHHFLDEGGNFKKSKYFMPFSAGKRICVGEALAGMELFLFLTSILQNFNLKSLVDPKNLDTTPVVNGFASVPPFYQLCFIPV

[16] = target: Cytochrome P450 3A4 (Homo sapiens, UniProt P08684);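 note: CYP3A4 tested as one member of a cytochrome P450 panel screen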
Cytochrome P450 3A4, sequence (P08684 whole entry, the tested form may be a part): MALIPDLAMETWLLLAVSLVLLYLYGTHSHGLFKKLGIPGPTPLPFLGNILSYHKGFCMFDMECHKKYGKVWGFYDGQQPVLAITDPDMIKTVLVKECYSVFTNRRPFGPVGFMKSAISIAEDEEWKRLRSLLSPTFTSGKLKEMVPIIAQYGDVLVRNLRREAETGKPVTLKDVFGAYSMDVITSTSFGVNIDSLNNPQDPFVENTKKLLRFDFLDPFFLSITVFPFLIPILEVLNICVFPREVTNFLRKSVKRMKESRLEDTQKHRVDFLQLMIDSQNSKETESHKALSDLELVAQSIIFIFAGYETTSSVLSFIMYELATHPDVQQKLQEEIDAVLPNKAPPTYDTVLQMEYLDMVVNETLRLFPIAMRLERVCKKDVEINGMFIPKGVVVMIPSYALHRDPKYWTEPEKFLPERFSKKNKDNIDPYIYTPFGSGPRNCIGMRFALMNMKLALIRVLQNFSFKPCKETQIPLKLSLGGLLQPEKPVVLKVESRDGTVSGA

[17] = HIV-1 AD8 envelope cell-cell fusion blockers – cherry-pick, dose response (AID 652062); assay type: functional, cell-based;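 note: luciferase signal from cell-cell fusion driven by HIV-1 clade B AD8 Env; potency is for inhibitors of fusion seen as a drop in luminescence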
[18] = blockers of HIV-1 envelope-mediated cell-cell fusion – cherry-pick, dose response (AID 652057); assay type: functional, cell-based
[19] = target: T4, Cytochrome P450 2C9; remark: listed apart in the source
[20] = Luminescence Cell-Based Dose Retest to Confirm Inhibitors of Cancer Stem Cells. [Related pubchem assays (depositor defined):AID2717, AID2721]; assay type: functional; conditions: Homo sapiens
[21] = target: Large T antigen (Simian virus 40, UniProt P03070); assay type: functional, Betapolyomavirus macacae;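 note: Confirmatory-stage PubChem screen for compounds that inhibit SV40 T antigen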
Large T antigen, sequence (P03070 whole entry): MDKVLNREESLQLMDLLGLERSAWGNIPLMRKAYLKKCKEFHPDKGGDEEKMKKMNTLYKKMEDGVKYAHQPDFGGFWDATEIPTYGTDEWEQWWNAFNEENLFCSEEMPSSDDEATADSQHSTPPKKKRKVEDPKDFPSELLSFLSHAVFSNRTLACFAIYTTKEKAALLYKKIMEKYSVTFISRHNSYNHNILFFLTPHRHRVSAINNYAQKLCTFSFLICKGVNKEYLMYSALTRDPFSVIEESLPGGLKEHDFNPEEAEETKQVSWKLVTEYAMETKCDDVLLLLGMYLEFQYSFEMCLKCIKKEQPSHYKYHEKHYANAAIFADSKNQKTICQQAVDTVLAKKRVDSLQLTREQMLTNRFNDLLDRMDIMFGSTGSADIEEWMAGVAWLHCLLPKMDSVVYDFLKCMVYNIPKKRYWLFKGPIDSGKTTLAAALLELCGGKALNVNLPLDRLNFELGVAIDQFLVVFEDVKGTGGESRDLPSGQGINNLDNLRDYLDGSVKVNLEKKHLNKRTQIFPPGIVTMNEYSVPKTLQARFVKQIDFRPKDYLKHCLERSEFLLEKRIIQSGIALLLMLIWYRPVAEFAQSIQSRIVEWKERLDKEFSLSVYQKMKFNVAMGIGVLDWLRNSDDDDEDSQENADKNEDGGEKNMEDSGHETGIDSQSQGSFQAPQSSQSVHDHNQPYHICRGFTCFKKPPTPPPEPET

T1 sequence (P49327 whole entry): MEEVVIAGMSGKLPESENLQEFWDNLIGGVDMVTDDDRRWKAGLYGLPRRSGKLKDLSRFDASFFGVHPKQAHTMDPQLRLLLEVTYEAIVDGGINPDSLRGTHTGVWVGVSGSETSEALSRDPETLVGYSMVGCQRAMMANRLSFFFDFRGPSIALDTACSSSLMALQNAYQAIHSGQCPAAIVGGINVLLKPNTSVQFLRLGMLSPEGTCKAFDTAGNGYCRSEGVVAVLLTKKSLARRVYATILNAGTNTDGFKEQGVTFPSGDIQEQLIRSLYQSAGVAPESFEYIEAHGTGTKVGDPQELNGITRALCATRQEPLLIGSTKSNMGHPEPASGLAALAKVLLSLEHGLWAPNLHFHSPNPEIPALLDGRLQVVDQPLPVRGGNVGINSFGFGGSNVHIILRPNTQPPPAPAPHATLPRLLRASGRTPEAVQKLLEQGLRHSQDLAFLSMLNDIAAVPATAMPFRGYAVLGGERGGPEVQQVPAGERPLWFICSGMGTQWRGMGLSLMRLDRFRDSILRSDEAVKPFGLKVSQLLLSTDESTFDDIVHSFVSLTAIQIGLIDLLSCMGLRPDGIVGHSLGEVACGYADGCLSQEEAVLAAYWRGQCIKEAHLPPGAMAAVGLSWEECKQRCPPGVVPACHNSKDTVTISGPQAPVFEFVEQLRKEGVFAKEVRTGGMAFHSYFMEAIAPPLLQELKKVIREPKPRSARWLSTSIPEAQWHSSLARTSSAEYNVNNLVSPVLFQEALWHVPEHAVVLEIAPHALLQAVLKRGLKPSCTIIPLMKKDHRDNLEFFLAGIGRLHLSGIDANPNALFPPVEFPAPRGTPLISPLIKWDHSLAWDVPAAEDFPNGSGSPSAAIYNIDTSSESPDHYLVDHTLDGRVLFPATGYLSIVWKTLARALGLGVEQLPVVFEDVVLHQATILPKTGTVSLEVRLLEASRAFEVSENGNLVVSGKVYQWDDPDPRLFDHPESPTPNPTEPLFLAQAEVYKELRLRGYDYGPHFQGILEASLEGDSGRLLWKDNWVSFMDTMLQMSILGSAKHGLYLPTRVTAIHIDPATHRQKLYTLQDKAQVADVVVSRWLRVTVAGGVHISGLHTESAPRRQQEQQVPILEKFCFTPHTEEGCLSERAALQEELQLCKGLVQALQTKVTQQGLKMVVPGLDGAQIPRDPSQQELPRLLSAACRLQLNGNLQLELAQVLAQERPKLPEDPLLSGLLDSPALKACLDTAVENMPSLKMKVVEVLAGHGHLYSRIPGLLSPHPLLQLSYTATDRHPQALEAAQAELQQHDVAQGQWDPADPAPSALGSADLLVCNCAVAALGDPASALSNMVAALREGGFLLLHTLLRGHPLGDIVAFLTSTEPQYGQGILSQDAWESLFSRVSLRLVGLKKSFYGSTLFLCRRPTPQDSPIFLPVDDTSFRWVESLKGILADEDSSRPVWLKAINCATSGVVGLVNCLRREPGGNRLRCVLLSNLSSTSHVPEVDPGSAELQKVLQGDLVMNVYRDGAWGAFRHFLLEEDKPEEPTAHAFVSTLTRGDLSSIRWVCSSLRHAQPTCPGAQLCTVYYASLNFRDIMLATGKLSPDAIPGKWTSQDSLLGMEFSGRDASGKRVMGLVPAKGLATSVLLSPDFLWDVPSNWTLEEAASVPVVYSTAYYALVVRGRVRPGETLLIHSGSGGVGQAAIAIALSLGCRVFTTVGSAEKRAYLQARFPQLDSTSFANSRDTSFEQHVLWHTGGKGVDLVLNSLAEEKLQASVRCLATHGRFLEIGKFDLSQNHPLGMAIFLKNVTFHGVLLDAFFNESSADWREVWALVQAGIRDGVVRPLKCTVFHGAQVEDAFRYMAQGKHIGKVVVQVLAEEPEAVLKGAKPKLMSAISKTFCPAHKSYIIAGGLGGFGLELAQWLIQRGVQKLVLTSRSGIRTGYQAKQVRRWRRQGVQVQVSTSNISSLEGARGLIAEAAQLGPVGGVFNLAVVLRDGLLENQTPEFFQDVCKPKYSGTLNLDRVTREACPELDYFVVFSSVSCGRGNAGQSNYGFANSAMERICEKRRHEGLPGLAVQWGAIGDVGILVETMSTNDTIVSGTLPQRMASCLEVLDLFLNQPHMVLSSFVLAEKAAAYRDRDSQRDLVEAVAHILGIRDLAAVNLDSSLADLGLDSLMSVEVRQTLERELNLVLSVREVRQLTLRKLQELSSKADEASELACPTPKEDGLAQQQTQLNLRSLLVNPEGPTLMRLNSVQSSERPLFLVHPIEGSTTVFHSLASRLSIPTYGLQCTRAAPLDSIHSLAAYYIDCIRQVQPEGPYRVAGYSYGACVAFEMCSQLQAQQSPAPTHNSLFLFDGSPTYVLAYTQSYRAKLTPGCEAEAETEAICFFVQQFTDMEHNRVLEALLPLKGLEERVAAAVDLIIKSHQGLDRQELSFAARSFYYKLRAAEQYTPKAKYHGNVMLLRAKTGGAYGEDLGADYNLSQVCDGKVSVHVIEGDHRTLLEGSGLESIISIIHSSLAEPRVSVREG

With `COc1ccc([N+](=O)[O-])cc1NC(=O)CCCOc1ccccc1` the IC50 [1] was 7.3 µM (active) and the IC50 [2] was 8.62 µM (active).

In the case of `Cc1ccc(CNC(=O)c2ccc3c(=O)[nH]c4c(C(=O)NCC5CCCO5)sc(=S)n4c3c2)cc1` (centres undefined), the IC50 [3] was 5.68 µM (active) and the IC50 [4] was 6.74 µM (active).

In the case of `Cc1ccc(C(=O)N/C(=C\c2cccc([N+](=O)[O-])c2)C(=O)Nc2cccc(C(=O)O)c2)cc1`, the IC50 [1] was 15.1 µM (active) and the IC50 [2] was 8.2 µM (active).

In the case of `CC1(C)N=C(N)N=C(N)N1c1ccc(OCCCOc2ccccc2)c(Cl)c1`, the EC50 [5] was 23.8 µM (active), the GI50 [6] was 1.39 µM (inactive) and the AC50 [7] was 5.88 µM (active). The GI50 [8] was < 0.01 µM (active), the EC50 [9] was 0.174 µM (inconclusive) and the GI50 [10] was 0.0289 µM (active). The EC50 [11] was < 0.12 µM (active) and the EC50 [12] was > 150 µM (not active).

For `O=C(Nc1ccc(N2CCCC2)cc1)c1ccc(Br)o1`, the IC50 [4] was 0.932 µM (active).

With `Cc1ccc(C(=O)Nc2ccc(N3CCOCC3)nc2)cc1` the AC50 [13] was 2.82 µM (inconclusive), the AC50 [14] was 17.8 µM (inconclusive) and the AC50 [15] was “inconclusive”.

For `COC(=O)c1ccc(COc2cc([N+](=O)[O-])cc3cccnc23)o1`, the IC50 [1] was 13.3 µM (active) and the IC50 [2] was 11.6 µM (active).

In the case of `CCN(Cc1ccccc1)C(=O)COC(=O)c1cc(Cl)nc(Cl)c1`, the IC50 [1] was 9.66 µM (active) and the IC50 [2] was 9.26 µM (active).

For `FC(F)(F)c1cccc(N2CCN(CC3CC4C=CC3C4)CC2)c1` (centres undefined), the AC50 [14] was 11.2 µM (inconclusive), the AC50 [16] was 39.8 µM (inconclusive) and the AC50 [15] was “inconclusive”.

With `COc1ccc(NC(=O)c2[nH]cnc2C(=O)N[C@H](C)c2ccccc2)cc1` the IC50 [1] was 10.9 µM (active) and the IC50 [2] was 11.5 µM (active).

With `Clc1ccc(-c2noc(CSc3nnc(-c4ccncc4)n3-c3ccccc3)n2)cc1` the AC50 [17] was 4.51 µM (active) and the AC50 [18] was 25 µM (active).

In the case of `CCOC(=O)N1CCN(Cc2nc3ccc([N+](=O)[O-])cc3c(=O)n2-c2cccc(OC)c2)CC1`, the IC50 [1] was 3.46 µM (active) and the IC50 [2] was 3.04 µM (active).

With `CCC(NCCc1c[nH]c2ccccc12)=C1C(=O)N(C)C(=O)N(C)C1=O` the AC50 [17] was 17.6 µM (active).

For `Cc1ccc2c(c1)C1CN(C)CCC1N2C(=O)Nc1cccc(Cl)c1` (centres undefined), the AC50 [19] was 39.8 µM (inconclusive) and the IC50 [4] was 8.64 µM (not active).

In the case of `O=S(=O)(Nc1ccc(-c2csc(-c3ccccc3)n2)cc1)c1ccccc1`, the IC50 [1] was 9.18 µM (active), the IC50 [2] was 8.85 µM (active) and the AC50 [20] was 5.04 µM (active).

For `C[C@]12CC[C@H](O)C=C1CC[C@@H]1[C@@H]2CC[C@]2(C)C(c3ccc(=O)oc3)CC[C@]12O` (some centres undefined), the GI50 [6] was 119 µM (inactive), the GI50 [8] was 116 µM (inactive) and the GI50 [10] was 0.0136 µM (active).

For `C=C1C(=O)OC2C1CC1OC2C(C)CCC/C(C)=C\CCC1(C)O` (centres undefined), the GI50 [6] was 9.66 µM (inactive), the GI50 [8] was 8.05 µM (inactive) and the GI50 [10] was 10.9 µM (inactive).

For `CCN(CC)CCCNc1ncc(C)c2[nH]c3ccncc3c12`, the GI50 [6] was 76.9 µM (inactive), the GI50 [8] was 0.479 µM (active) and the GI50 [10] was 5.56 µM (inactive).

With `COc1ccc(C(=O)/C(Br)=C/C(=O)O)cc1` the GI50 [6] was 17.7 µM (inactive), the GI50 [8] was 11.7 µM (inactive) and the GI50 [10] was 6 µM (inactive).

In the case of `COc1cc(C2c3cc4c(cc3[C@@H](Nc3cnc5ccccc5c3)C3COC(=O)[C@H]23)OCO4)cc(OC)c1O` (some centres undefined), the GI50 [6] was 0.182 µM (active), the GI50 [8] was < 0.01 µM (active) and the GI50 [10] was 0.0269 µM (active).

For `Cc1nn(-c2ccc(Br)cc2)c(O)c1/C=N/c1ccc(S(=O)(=O)Nc2nccs2)cc1`, the IC50 [4] was 6 µM (active).

With `NCCCNc1ccc2c3c(nn2CCNCCO)-c2c(O)ccc(O)c2C(=O)c13` the GI50 [6] was 1.21 µM (inactive), the GI50 [8] was 0.146 µM (active) and the GI50 [10] was 0.167 µM (active).

In the case of `N#C/C(=C\c1ccc(O)c(O)c1)C(=O)NCc1ccccc1`, the AC50 [13] was 25.1 µM (inconclusive), the IC50 [21] was 14.6 µM (active) and the AC50 [15] was “inconclusive”.
